Test results as given in patent US20240166624A1, “PPARG INVERSE AGONISTS AND USES THEREOF” (Flare Therapeutics Inc., priority 2021, published 2024).

Assays:
[1] = target: T1, PPARG/RXRA LBD heterodimer (Homo sapiens, UniProt P37231); test: PPARγ-MED1 blockade assay (TR-FRET, biotinylated MED1 LxxLL peptide); type: biochemical; conditions: WT PPARG LBD/WT RXRA LBD, 80 nM Rosiglitazone, 3 hours
T1 construct: His-TEV-Q203-Y477; Uniprot ID P37231-2; made in house; host or cells: E. coli
T1 sequence (P37231 203-477 isoform P37231-2): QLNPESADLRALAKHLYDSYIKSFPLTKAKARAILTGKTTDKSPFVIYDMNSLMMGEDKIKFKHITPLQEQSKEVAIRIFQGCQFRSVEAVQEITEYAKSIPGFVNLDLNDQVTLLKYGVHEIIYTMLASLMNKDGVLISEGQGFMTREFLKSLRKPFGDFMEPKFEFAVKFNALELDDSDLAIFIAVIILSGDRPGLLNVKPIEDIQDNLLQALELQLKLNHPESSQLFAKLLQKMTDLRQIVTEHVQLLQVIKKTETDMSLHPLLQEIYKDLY
T1 sequence (P19793 228-462 partner limits assumed): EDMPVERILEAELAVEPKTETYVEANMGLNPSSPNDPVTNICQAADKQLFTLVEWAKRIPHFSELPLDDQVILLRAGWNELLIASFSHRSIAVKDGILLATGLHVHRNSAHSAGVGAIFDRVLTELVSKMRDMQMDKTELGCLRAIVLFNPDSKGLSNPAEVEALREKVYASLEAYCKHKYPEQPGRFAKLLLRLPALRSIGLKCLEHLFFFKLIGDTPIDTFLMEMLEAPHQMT
Experimental: PPARγ-MED1 Blockade Assay:
Compound potency (IC50) and maximal extent of MED1 repulsion to PPARG were assessed a TR-FRET binding assay measuring association of a biotinylated MED1 LxxLL peptide (Biotin-[…]-amide) to PPARG/RXRA LBD heterodimer. Specifically, a 20 microliters of TR-FRET master mix consisting of 2 nM WT PPARG LBD (E. coli expressed, His-TEV-Q203-Y477; Uniprot ID P37231-2), 2 nM WT RXRA LBD (E. coli expressed, Flag-TEV-E228-T462; […]. Mixtures were incubated for 3 hours and read in an EnVision plate reader (Perkin Elmer) with Ex/Em 615/665. To determine the potency (IC50) and extent of MED1 repulsion, TR-FRET ratios were normalized to the average ratio of DMSO control wells (0%) and to the average minimum ratio for positive control compound (GW9662 (2-chloro-5-nitrobenzanilide); defined as 100%) in CDD Vault and analyzed using the Levenberg-Marquardt algorithm.

[2] = tested on: ANGPTL4, a PPARG target gene, in HT1197 (RXRA S427F mutation) cells; test: Bladder cancer pharmacodynamic assay, HT1197 cell assay (qPCR of ANGPTL4); type: cell-based; conditions: Homo sapiens, 24 hours, 100 nM compound, relative to DMSO control
Experimental: Bladder Cancer Pharmacodynamic Assay
5637 (PPARG amplified) and HT1197 (RXRA S427F mutation) cells were used for assessment of modulation of PPARG target genes using quantitative PCR. Cells were treated for 24 hours with PPARG inverse agonists prior to analysis of FABP4 (IDT, Cat: Hs.PT 58.20106818) and ANGPTL4 (IDT, Cat: Hs.PT 58.25480012) expression, with expression of the housekeeping gene TBP (IDT, Cat: Hs.PT 58v.39858774) used to normalize expression across samples. Quantitative PCR was performed using an ABI QuantStudio 7 Flex Reaction system. Data were analyzed and reported relative to DMSO control using the comparative Ct method (ΔΔCt).

[3] = target: T2, PPARG/RXRA LBD heterodimer (Homo sapiens, UniProt P37231); test: PPARγ-NCOR1 recruitment assay (TR-FRET, biotinylated NCOR1 ID2 peptide); type: biochemical; conditions: 80 nM Rosiglitazone, 3 hours, read-out: PPARG-NCOR recruitment assay EC50
T2 construct: His-TEV-Q203-Y477; Uniprot ID P37231-2; made in house; host or cells: E. coli
Experimental: PPARγ-NCOR1 Recruitment Assay:
Compound potency (EC50) and maximal extent of NCOR1 recruitment to PPARG were assessed a TR-FRET binding assay measuring association of a biotinylated NCOR1 ID2 peptide (Biotin-[…]-amide) to PPARG/RXRA LBD heterodimer. Specifically, a 20 microliters of TR-FRET master mix consisting of 2 nM WT PPARG LBD (E. coli expressed, His-TEV-Q203-Y477; Uniprot ID P37231-2), 2 nM WT RXRA LBD or mutant S427F RXRA LBD (E. coli expressed, Flag-TEV-E228-T462; […]. Mixtures were incubated for 3 hours and read in an EnVision plate reader (Perkin Elmer) with Ex/Em 615/665. To determine the potency (EC50) and extent of NCOR1 recruitment, TR-FRET ratios were normalized to the average ratio of DMSO control wells (0%) and to the average maximum ratio for positive control compound (T0070907 (2-chloro-5-nitro-N-4-pyridinyl-benzamide); defined as 100%) in CDD Vault and analyzed using the Levenberg-Marquardt algorithm.
T2 sequence (O75376 2251-2273 partner, one chain of several): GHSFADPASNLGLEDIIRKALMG

SMILES | EC50 [1] [nM] | inhibition at 0.1 µM [2] [%] | EC50 [3] [nM]
N#Cc1ccc(Cl)c(-c2cc(=O)c3c(F)c(-c4cnc(C(F)(F)F)nc4)c(F)cc3[nH]2)c1 [Example 50, 4-chloro-3-(5,7-difluoro-4-oxo-6-(2-(trifluoromethyl)pyrimidin-5-yl)-1,4-dihydroquinolin-2-yl)benzonitrile] | 100 to 1000 | 80 | 100 to 1000
N#Cc1ccc(Cl)c(-c2cc(=O)c3c(F)c(-c4ccnc(C(F)F)c4)c(F)cc3[nH]2)c1 [Example 51, 4-chloro-3-(6-(2-(difluoromethyl)pyridin-4-yl)-5,7-difluoro-4-oxo-1,4-dihydroquinolin-2-yl)benzonitrile] | 100 to 1000 | 56 | 100 to 1000
CN(C)CCn1cc(-c2c(F)cc3[nH]c(-c4cc(C#N)ccc4Cl)cc(=O)c3c2F)cn1 [Example 52, 4-chloro-3-(6-(1-(2-(dimethylamino)ethyl)-1H-pyrazol-4-yl)-5,7-difluoro-4-oxo-1,4-dihydroquinolin-2-yl)benzonitrile] | 1000 to 10000 | 29 | 1000 to 10000
N#Cc1ccc(Cl)c(-c2cc(=O)c3c(F)c(-c4ccnc(C(F)(F)F)c4)c(F)cc3[nH]2)c1 [Example 53, 4-chloro-3-(5,7-difluoro-4-oxo-6-(2-(trifluoromethyl)pyridin-4-yl)-1,4-dihydroquinolin-2-yl)benzonitrile] | 100 to 1000 | 36 | 100 to 1000
N#Cc1ccc(Cl)c(-c2cc(=O)c3c(F)c(-c4cc[nH]c(=O)c4)c(F)cc3[nH]2)c1 [Example 54, 4-chloro-3-(5,7-difluoro-4-oxo-6-(2-oxo-1,2-dihydropyridin-4-yl)-1,4-dihydroquinolin-2-yl)benzonitrile] | 100 to 1000 | 20 | 100 to 1000
N#Cc1ccc(Cl)c(-c2cc(=O)c3c(F)c(-c4ccc(C(F)(F)F)cn4)c(F)cc3[nH]2)c1 [Example 55, 4-chloro-3-(5,7-difluoro-4-oxo-6-(5-(trifluoromethyl)pyridin-2-yl)-1,4-dihydroquinolin-2-yl)benzonitrile] | 100 to 1000 | 65 | 100 to 1000
N#Cc1ccc(Cl)c(-c2cc(=O)c3c(F)c(-c4ccc5c(c4)NC(=O)C5)c(F)cc3[nH]2)c1 [Example 56, 4-chloro-3-(5,7-difluoro-4-oxo-6-(2-oxoindolin-6-yl)-1,4-dihydroquinolin-2-yl)benzonitrile] | 100 to 1000 | 26 | 100 to 1000
COCc1c(F)cc2[nH]c(-c3cc(C#N)ccc3Cl)cc(=O)c2c1F [Example 57, 4-chloro-3-(5,7-difluoro-6-(methoxymethyl)-4-oxo-1,4-dihydroquinolin-2-yl)benzonitrile] | 100 to 1000 | 87 | 100 to 1000
N#Cc1ccc(Cl)c(-c2cc(=O)c3c(F)c(-c4cnn(C(F)(F)F)c4)c(F)cc3[nH]2)c1 [Example 58, 4-chloro-3-(5,7-difluoro-4-oxo-6-(1-(trifluoromethyl)-1H-pyrazol-4-yl)-1,4-dihydroquinolin-2-yl)benzonitrile] | 100 to 1000 | 88 | 100 to 1000
N#Cc1ccc(Cl)c(-c2cc(=O)c3c(F)c(-c4ccc5c(c4)C(=O)NC5)c(F)cc3[nH]2)c1 [Example 59, 4-chloro-3-(5,7-difluoro-4-oxo-6-(3-oxoisoindolin-5-yl)-1,4-dihydroquinolin-2-yl)benzonitrile] | 10 to 100 | 42 | 10 to 100
Cc1cnc(-c2c(F)cc3[nH]c(-c4cc(C#N)ccc4Cl)cc(=O)c3c2F)cn1 [Example 60, 4-chloro-3-(5,7-difluoro-6-(5-methylpyrazin-2-yl)-4-oxo-1,4-dihydroquinolin-2-yl)benzonitrile] | 100 to 1000 | 80 | 100 to 1000
N#Cc1ccc(Cl)c(-c2cc(=O)c3c(F)c(-c4ccc(C(F)F)cn4)c(F)cc3[nH]2)c1 [Example 61, 4-chloro-3-(6-(5-(difluoromethyl)pyridin-2-yl)-5,7-difluoro-4-oxo-1,4-dihydroquinolin-2-yl)benzonitrile] | 100 to 1000 | 70 | 100 to 1000
N#Cc1ccc(Cl)c(-c2cc(=O)c3c(F)c(-c4cn[nH]c4)c(F)cc3[nH]2)c1 [Example 62, 4-chloro-3-(5,7-difluoro-4-oxo-6-(1H-pyrazol-4-yl)-1,4-dihdroquinolin-2-yl)benzonitrile] | 100 to 1000 | 40 | 100 to 1000
Cn1ncc(-c2c(F)cc3[nH]c(-c4cc(C#N)ccc4Cl)cc(=O)c3c2F)cc1=O [Example 63, 4-chloro-3-(5,7-difluoro-6-(1-methyl-6-oxo-1,6-dihydropyridazin-4-yl)-4-oxo-1,4-dihydroquinolin-2-yl)benzonitrile] | 100 to 1000 | 24 | 100 to 1000
N#Cc1ccc(Cl)c(-c2cc(=O)c3c(F)c(-c4ccc(CO)nc4)c(F)cc3[nH]2)c1 [Example 64, 4-chloro-3-(5,7-difluoro-6-(6-(hydroxymethyl)pyridin-3-yl)-4-oxo-1,4-dihydroquinolin-2-yl)benzonitrile] | 100 to 1000 | 59 | 100 to 1000
Cc1nc(-c2c(F)cc3[nH]c(-c4cc(C#N)ccc4Cl)cc(=O)c3c2F)c[nH]1 [Example 65, 4-chloro-3-(5,7-difluoro-6-(2-methyl-1H-imidazol-4-yl)-4-oxo-1,4-dihydroquinolin-2-yl)benzonitrile] | 100 to 1000 | 44 | 100 to 1000
N#Cc1ccc(Cl)c(-c2cc(=O)c3c(F)c(-c4c[nH]c(C(F)(F)F)n4)c(F)cc3[nH]2)c1 [Example 67, 4-chloro-3-(5,7-difluoro-4-oxo-6-(2-(trifluoromethyl)-1H-imidazol-4-yl)-1,4-dihydroquinolin-2-yl)benzonitrile] | 10 to 100 | 22 | 10 to 100
N#Cc1ccc(Cl)c(-c2cc(=O)c3c(F)c(-c4nccc(=O)[nH]4)c(F)cc3[nH]2)c1 [Example 68, 4-chloro-3-(5,7-difluoro-4-oxo-6-(6-oxo-1,6-dihydropyrimidin-2-yl)-1,4-dihydroquinolin-2-yl)benzonitrile] | 1000 to 10000 | 28 | 1000 to 10000
CC(C)(CO)n1cc(-c2c(F)cc3[nH]c(-c4cc(C#N)ccc4Cl)cc(=O)c3c2F)cn1 [Example 69, 4-chloro-3-(5,7-difluoro-6-(1-(1-hydroxy-2-methylpropan-2-yl)-1H-pyrazol-4-yl)-4-oxo-1,4-dihydroquinolin-2-yl)benzonitrile] | 100 to 1000 | 68 | 100 to 1000
Cc1ccc(-c2c(F)cc3[nH]c(-c4cc(C#N)ccc4Cl)cc(=O)c3c2F)nn1 [Example 70, 4-chloro-3-(5,7-difluoro-6-(6-methylpyridazin-3-yl)-4-oxo-1,4-dihydroquinolin-2-yl)benzonitrile] | 1000 to 10000 | 66 | 1000 to 10000
